Test results: ChEMBL document CHEMBL1139196, “Synthesis of fluorescent-labeled aeruginosin derivatives for high-throughput fluorescence correlation spectroscopy assays” (Bioorg Med Chem Lett, 2007)

Each molecule was assayed against Trypsin (Homo sapiens, UniProt P07477+P07478+P35030) (assay: Inhibition of trypsin by FCS method).
Assay type: protein assay

Q: Which IC50 does the source give for N=C(N)NCCC[C@@H](CO)NC(=O)[C@@H]1C[C@@H]2CC[C@@H](O)C[C@@H]2N1C(=O)[C@@H](Cc1ccc(O)cc1)NC(=O)[C@H](O)Cc1ccc(O)cc1 here?
A: 8800 nM

Q: Which IC50 does the source give for N=C(N)NCCC[C@H](NC(=O)[C@@H]1C[C@@H]2CC[C@@H](O)C[C@@H]2N1C(=O)[C@@H](Cc1ccc(O)cc1)NC(=O)[C@H](O)Cc1ccc(O)cc1)C(=O)O here?
A: 1000 nM

Q: N=C(N)NCCCCNC(=O)[C@@H]1C[C@@H]2CC[C@@H](O)C[C@@H]2N1C(=O)[C@@H](Cc1ccc(O)cc1)NC(=O)[C@H](O)Cc1ccc(O)cc1 was tested. Which IC50 did it give?
A: 150 nM

Q: For N=C(N)NCCC[C@H](NC(=O)[C@@H]1C[C@@H]2CC[C@@H](O)C[C@@H]2N1C(=O)[C@H](Cc1ccccc1)NC(=O)[C@H](O)Cc1ccc(O)cc1)C(=O)O, which IC50 is on record?
A: 12000 nM

Q: With CC(C)C[C@@H](NC(=O)[C@H](O)Cc1ccc(O)cc1)C(=O)N1[C@H](C(=O)N[C@@H](CCCNC(=N)N)C(=O)O)C[C@@H]2CC[C@@H](O)C[C@@H]21 as the molecule, how does the IC50 read?
A: 650 nM
